Laboratory results reported in patent publication US10144737B2 (ETERNITY BIOSCIENCE INC., priority 2014, dated 2018).

Key:
TMD-8 cells = assay: Cell proliferation assay (CellTiter-Glo), TMD-8 cells; type: cell-based; settings: Homo sapiens, TMD8, 120 h, 5-day treatment, read-out: TMD8 cell growth (GI50 μM)
Description: Cell proliferation assay: TMD-8 and SU-DHL-1 cells were maintained at 37° C. in a humidified atmosphere with 5% CO2 in the recommended medium and serum concentrations. For cell proliferation assay, cells were seeded in 96-well pates at a density of 5,000 to 10,000 cells per well and cultured overnight at 37° C. in recommended medium supplemented with 5-10% FBS. On the next day, the test articles at various concentrations or vehicle control (0.5% DMSO) were added into cell culture. After 5-day treatment, the growth of cells was assayed by the CellTiter-Glo® Luminestceaent Cell Viability Assay (Promega). IC50 values were calculated using GraphPad Prism by plotting the logarithm of the concentration versus percent inhibition of cell growth as compared with the vehicle control.

Btk = target: T1, Btk (Homo sapiens, UniProt Q06187); assay: Btk kinase assay (ADP-Glo); type: biochemical; settings: ADP-Glo Btk kinase assay kit; ATP 1.2 μM; 60 minutes at room temperature
T1 construct: purchased Promega (Madison, Wis.)
T1 sequence (Q06187 whole entry): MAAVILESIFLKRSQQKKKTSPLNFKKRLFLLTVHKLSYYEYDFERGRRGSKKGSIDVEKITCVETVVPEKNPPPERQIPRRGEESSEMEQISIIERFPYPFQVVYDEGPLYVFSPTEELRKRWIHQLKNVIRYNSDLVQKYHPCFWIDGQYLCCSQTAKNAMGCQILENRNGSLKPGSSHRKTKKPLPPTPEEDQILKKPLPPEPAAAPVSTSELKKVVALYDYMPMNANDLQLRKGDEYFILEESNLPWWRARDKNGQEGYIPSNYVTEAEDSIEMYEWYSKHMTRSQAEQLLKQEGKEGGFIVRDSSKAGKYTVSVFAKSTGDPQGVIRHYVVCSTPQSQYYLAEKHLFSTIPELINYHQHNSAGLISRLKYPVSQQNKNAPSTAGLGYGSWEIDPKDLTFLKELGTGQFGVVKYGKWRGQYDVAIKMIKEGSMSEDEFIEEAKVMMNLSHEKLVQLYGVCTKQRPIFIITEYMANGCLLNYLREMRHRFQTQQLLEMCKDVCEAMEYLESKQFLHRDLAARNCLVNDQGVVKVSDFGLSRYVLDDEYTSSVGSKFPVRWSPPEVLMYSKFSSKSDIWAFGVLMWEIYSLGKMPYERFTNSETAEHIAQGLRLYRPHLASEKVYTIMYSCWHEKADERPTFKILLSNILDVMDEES
Description: Btk kinase assay—The Btk kinase assay was performed using a ADP-Glo Btk kinase assay kit purchased from Promega (Madison, Wis.). The assay was conducted according to the protocols provided in the assay kit. In brief, the enzyme reaction was carried out in the kinase reaction buffer containing Btk (2 ng/μl), ATP (1.2 μM), poly GT peptide (0.3 μM), DTT (40 nM), MnCl2 (1.4 mM), and 1 xkinase buffer (included in the kit) in the presence or absence of the tested articles at various concentrations in 384-well plate at room temperature (22±1° C.) for 60 minutes. The final reaction volume for each reaction was 10 μl. Then, 4 μl of ADP-Glo reagent (included in the kit) was added into the reaction and the plate was further incubated for another 40 minutes to terminate the reaction and deplete the remaining ATP. Finally, 10 μl of the kinase detection reagent was added into each reaction to simultaneously convert ADP to ATP and allow the newly synthesized ATP to be measured by a plate-reading luminometer (Victor X5 2030 multilabel reader, PerkinElmer). IC50 value was calculated using appropriate programs in GraphPad Prism by plotting the logarithm of the concentration versus percent inhibition as compared with a vehicle (DMSO) control.

Row | IC50 (Btk) [µM] | Compound | GI50 (TMD-8 cells) [µM]
1 | 0.109 | C=CC(=O)N1CCN(c2ncnc3[nH]c(C#CCOc4ccccc4)cc23)CC1 [Example 1, 1-(4-(6-(3-phenoxyprop-1-yn-1-yl)-7H-pyrrolo[2,3-d]pyrimidin-4-yl)piperazin-1-yl)prop-2-en-1-one] | 0.054
2 | 0.0033 | CN(C)C/C=C/C(=O)N1CCN(c2ncnc3[nH]c(C#CCOc4ccccc4)cc23)CC1 [Example 2, (E)-4-(dimethylamino)-1-(4-(6-(3-phenoxyprop-1-yn-1-yl)-7H-pyrrolo[2,3-d]pyrimidin-4-yl)piperazin-1-yl)but-2-en-1-one] | 0.034
3 | 0.0023 | CNC/C=C/C(=O)N1CCN(c2ncnc3[nH]c(C#CCOc4ccccc4)cc23)CC1 [Example 3, (E)-4-(methylamino)-1-(4-(6-(3-phenoxyprop-1-yn-1-yl)-7H-pyrrolo[2,3-d]pyrimidin-4-yl)piperazin-1-yl)but-2-en-1-one] | 2.9
4 | 0.06 | C=CC(=O)N1CCN(c2ncnc3[nH]c(C#CCOCc4ccccc4)cc23)CC1 [Example 4, 1-(4-(6-(3-(benzyloxy)prop-1-yn-1-yl)-7H-pyrrolo[2,3-d]pyrimidin-4-yl)piperazin-1-yl)prop-2-en-1-one] | 0.157
5 | 0.257 | C=CC(=O)N1CCN(c2ncnc3[nH]c(C#CCOC)cc23)CC1 [Example 5, 1-(4-(6-(3-methoxyprop-1-yn-1-yl)-7H-pyrrolo[2,3-d]pyrimidin-4-yl)piperazin-1-yl)prop-2-en-1-one] | 1.66
6 | 0.0164 | C=CC(=O)N1CCN(c2ncnc3[nH]c(C#CCOc4ccccc4)nc23)CC1 [Example 6, 1-(4-(8-(3-phenoxyprop-1-yn-1-yl)-9H-purin-6-yl)piperazin-1-yl)prop-2-en-1-one] | 0.019
7 | 0.003 | CN(C)C/C=C/C(=O)N1CCN(c2ncnc3[nH]c(C#CCOc4ccccc4)nc23)CC1 [Example 7, (E)-4-(dimethylamino)-1-(4-(8-(3-phenoxyprop-1-yn-1-yl)-9H-purin-6-yl)piperazin-1-yl)but-2-en-1-one] | 0.141
8 | 0.332 | O=C(/C=C/CN1CCOCC1)N1CCN(c2ncnc3[nH]c(C#CCOc4ccccc4)nc23)CC1 [Example 8, (E)-4-morpholino-1-(4-(8-(3-phenoxyprop-1-yn-1-yl)-9H-purin-6-yl)piperazin-1-yl)but-2-en-1-one] | 0.357
9 | 0.0026 | C=CC(=O)N1CCC(Nc2ncnc3[nH]c(C#CCOc4ccccc4)nc23)C1 (stereo not shown) [Example 9, 1-(3-((8-(3-phenoxyprop-1-yn-1-yl)-9H-purin-6-yl)amino)pyrrolidin-1-yl)prop-2-en-1-one] | 0.012
10 | 0.0001 | CN(C)C/C=C/C(=O)N1CCC(Nc2ncnc3[nH]c(C#CCOc4ccccc4)nc23)C1 (stereo not shown) [Example 10, (E)-4-(dimethylamino)-1-(3-((8-(3-phenoxyprop-1-yn-1-yl)-9H-purin-6-yl)amino)pyrrolidin-1-yl)but-2-en-1-one] | 0.171
11 | 0.06 | O=C(/C=C/CN1CCOCC1)N1CCC(Nc2ncnc3[nH]c(C#CCOc4ccccc4)nc23)C1 (stereo not shown) [Example 11, (E)-4-morpholino-1-(3-((8-(3-phenoxyprop-1-yn-1-yl)-9H-purin-6-yl)amino)pyrrolidin-1-yl)but-2-en-1-one] | 1.17
12 | 0.0003 | O=C(/C=C/CN1CCCC1)N1CCC(Nc2ncnc3[nH]c(C#CCOc4ccccc4)nc23)C1 (stereo not shown) [Example 12, (E)-1-(3-((8-(3-phenoxyprop-1-yn-1-yl)-9H-purin-6-yl)amino)pyrrolidin-1-yl)-4-(pyrrolidin-1-yl)but-2-en-1-one] | 1.3
13 | 1.18 | O=C(/C=C/c1cccs1)N1CCC(Nc2ncnc3[nH]c(C#CCOc4ccccc4)cc23)C1 (stereo not shown) [Example 37, (E)-1-(3-((6-(3-phenoxyprop-1-yn-1-yl)-7H-pyrrolo[2,3-d]pyrimidin-4-yl)amino)pyrrolidin-1-yl)-3-(thiophen-2-yl)prop-2-en-1-one] | 
